This note sets out measurements from patent publication US20110319603A1, “METHOD FOR FLU[…] PROTEIN” (OSAKA UNIVERSITY, priority 2009, published 2011).

Series [1] relates to PYP-TM expressed on HEK293T cells. The experiment in a line: Labeling reaction with CATP in cultured cell, PYP-TM (fluorescence microscopy). The class given is cell-based, Halorhodospira halophila. To be noted: CATP 5 μM, 30 minutes. As for the experimental part:
(§1) A plasmid was prepared in which a gene MBP-PYP obtained by fusing a maltose binding protein (MBP) with a PYP was introduced into the multicloning site of pcDNA3.1, which was a mammalian expression vector. Furthermore, in order to express a PYP on the cell surface, a plasmid was prepared in which a gene PYP-TM obtained by fusing a PYP with the transmembrane domain of a platelet-derived growth factor receptor (PDGFR) was introduced into the multicloning site of pcDNA3.1, which was a mammalian expression vector. HEK293T cells were transfected with these plasmids by using lipofectamine 2000. After transfection with the plasmids, the HEK293T cells were allowed to stand at 37° C. for 36 hours and then washed with a phosphoric acid buffer (PBS). A culture medium containing CATP (5 μM) was added thereto, which then was allowed to stand for 30 minutes.

In series [2] the test system is MBP-PYP expressed in HEK293T cells. Nature of the series: Labeling reaction with CATP in cultured cell, MBP-PYP (fluorescence microscopy). As to conditions: CATP 5 μM, 30 minutes. Format: cell-based, Halorhodospira halophila. As for the experimental part: as §1
The target of series [3] is T1, PYP (Halorhodospira halophila, UniProt P16113).
T1 construct: His tag (with enterokinase cleavage site) (N, cleaved yes); made in house; host or cells: E. coli BL21 (DE3), pET-21b(+) (pET-PYP)
T1 sequence (P16113 1-125): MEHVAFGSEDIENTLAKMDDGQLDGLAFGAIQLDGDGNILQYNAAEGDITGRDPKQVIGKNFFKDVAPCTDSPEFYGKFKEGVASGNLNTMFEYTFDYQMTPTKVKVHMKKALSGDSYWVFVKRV
The experiment in a line: Reaction between PYP and FCTP, analyzed by SDS-PAGE (CBB-stained and fluorescent image). The class given is binding. The protocol: In Tris buffer (20 mM Tris-HCl, 150 mM NaCl, 1 mM TCEP (pH 8.0)), 5 μM of PYP was reacted with 12.5 μM of compound FCTP at 37° C. for 24 hours. After completion of the reaction, the result was analyzed by SDS-PAGE (20% acrylamide separation gel). […] With reference to FIG. 1(b), similarly in the fluorescent image, fluorescence was observed.

In series [4] the test system is PYP-TM expressed on HEK293T cells. Nature of the series: Labeling reaction with FCTP in cultured cell (fluorescence microscopy). Format: cell-based, Halorhodospira halophila. As to conditions: FCTP 20 μM, 30 minutes. As for the experimental part: In order to express a PYP on the cell surface, a plasmid was prepared in which a gene PYP-TM obtained by fusing a PYP with the transmembrane domain of a platelet-derived growth factor receptor (PDGFR) was introduced into the multicloning site of pcDNA3.1, which is a mammalian expression vector. HEK293T cells were transfected with this plasmid by using lipofectamine 2000. After transfection with the plasmid, the HEK293T cells were allowed to stand at 37° C. for 36 hours and then washed with a phosphoric acid buffer (PBS). A culture medium containing FCTP (20 μM) was added thereto, which then was allowed to stand for 30 minutes. […] With the fluorescence microscope having an excitation wavelength of 488 nm, the cells were observed using a fluorescent filter of 510 to 550 nm.

The target of series [5] is T1, PYP. Nature of the series: Reaction of compound FCTP with PYP in HEK293T cell lysate, SDS-PAGE. The class given is binding. As for the experimental part: In a HEK293T cell lysate dissolved in Tris buffer (20 mM Tris-HCl, 150 mM NaCl, 1 mM TCEP (pH 8.0)), 5 μM of PYP was reacted with 50 μM of compound FCTP at 37° C. for 30 minutes in the presence or absence of 10 mM MESNa. After completion of the reaction, it was analyzed by SDS-PAGE (20% acrylamide separation gel). […] On the other hand, the fluorescent band on the high molecular weight side disappeared upon addition of MESNa (10 mM), which was a type of thiol compound. It was confirmed that an addition of a certain amount of free thiol allowed labeling to be carried out specifically in the cell lysate.

Series [6] deals with T1, PYP. Nature of the series: Fluorescent properties of FCTP (fluorescence and excitation spectra with and without PYP). To be noted: 8 μM compound, Tris buffer pH 8.0, 37° C. As for the experimental part:
In order to examine the fluorescent properties of compound FCTP bound to the PYP, Tris buffer (20 mM Tris-HCl, 150 mM NaCl, 1 mM TCEP (pH 8.0)), the fluorescence and excitation spectra were measured at 37° C.

Take `[N-]=[N+]=NCCOCCOCCOCc1cc(O)cc2oc(=O)c(C(=O)Sc3ccccc3)cc12` [CATP]: the “fluorescent labeling in cells where PYP-TM was not expressed” value in series [1] is given as “neither fluorescent labeling with FCTP nor that with CATP was observed”. The “fluorescent labeling in PYP-TM expressed cells” value in series [1] (excitation 436 nm) was “observed”. The “fluorescent labeling in cells in which MBP-PYP was not expressed” value in series [2] is recorded as “not observed”. Also, the “fluorescent labeling in cells in which MBP-PYP was expressed” value in series [2] (excitation 436 nm) is “observed”. In addition, the “thioester bond between the PYP and compound upon addition of DTT” value on PYP [3] (DTT (100 mM) added after labeling) is reported as “hydrolyzed by a large excess of DTT”.
For the compound `O=C(NCc1cn(COCCOCCOCc2cc(O)cc3oc(=O)c(C(=O)Sc4ccccc4)cc23)nn1)c1ccc(C(=O)O)c(-c2c3ccc(=O)cc-3oc3cc(O)ccc23)c1` [FCTP], the “fluorescent labeling in cells where PYP-TM was not expressed” value in series [4] was “neither fluorescent labeling with FCTP nor that with CATP was observed”. The “fluorescent labeling in PYP-TM expressed cells” value in series [4] (excitation 488 nm) is on record as “observed”. The “fluorescent labeling of PYP in cell lysate” value at PYP [5] (5 μM PYP, 50 μM compound, 37° C., 30 minutes) is listed as “fluorescence was observed in the vicinity of the PYP band”. For the same compound, the “fluorescent band in the high molecular weight range (non-specific labeling) in cell lysate” value on PYP [5] (absence of MESNa) was “another fluorescent band was observed in the high molecular weight range”. On PYP [5] (addition of MESNa (10 mM)), the “fluorescent band on the high molecular weight side in cell lysate” value is “disappeared”. At PYP [6] (5 μM PYP, time-dependent), the “fluorescence intensity of compound in the presence of PYP” value is “increased in the presence of the PYP with the passage of time”. The “fluorescence intensity of compound alone” value on PYP [6] (no PYP, excitation at 500 nm) is “very weak”. Besides, the “labeling of the PYP (slowly migrating band, fluorescence on gel)” value on PYP [3] (5 μM PYP, 12.5 μM compound, Tris buffer pH 8.0, 37° C., 24 hours) was “able to label the PYP”.
